System: Panc02/Luc-GFP-Claudin 18.2 cells
Assay: In vivo inhibitory effect of Gemcitabine combined with CAR T cells on in situ mouse pancreatic cancer
Parameters: species or system C57BL/6 mice
Method: The pancreases of 6-week-old C57BL/6 mice are inoculated with 2×10^5 Panc02/Luc-GFP-Claudin 18.2 cells in situ, and is recorded as Day 0 in the tumor cell inoculation diary.
On the 6th day after tumor inoculation (i.e., Day 6), mouse T cells are taken and constructed according to Example 1 to construct the 8E5-2I-mBBZ CAR T cell line. At the same time, the mice are subjected to in vivo imaging, and the mice are randomly grouped according to the tumor burden of the mice. The main groups are:
Group 1: UTD group, that is, the group administrated only untransfected mouse T cell treatment;
Group 2: CART group, that is, the group administrated only 8E5-2I-mBBZ CAR T cell therapy;
Group 3: Gemcitabine group, that is, the group administrated only Gemcitabine; and
Group 4: Gemcitabine+CART group, that is, the group administrated 8E5-2I-mBBZ CAR T cells combined with Gemcitabine treatment.
On the 6th, 7th, and 8th day (i.e., Day 6, 7, and 8), mice in the Gemcitabine group and Gemcitabine+CART group are administrated 30 mg/kg Gemcitabine for treatment, intraperitoneal administration, once a day. […]

Cl.Nc1ccn([C@@H]2O[C@H](CO)[C@@H](O)C2(F)F)c(=O)n1 [Gemcitabine, 2′-deoxy-2′, 2′-difluorocytidine hydrochloride]
tumor burdens compared to the UTD group (Day 13, in vivo imaging, FIG. 2, Gemcitabine 30 mg/kg i.p. Day 6-8, 3×10^6 CAR-T cells tail vein Day 9): significantly decreased
tumor growth (in vivo imaging data) (FIG. 3, Gemcitabine+CART compared with the UTD group, P<0.05): continue to grow

Source: patent US20220152101A1, “CELLULAR IMMUNOTHERAPY COMBINATION” (CARSGEN THERAPEUTICS CO., LTD., priority 2019, published 2022)
